Measurements reported in patent US12691093B2 (THE TRUSTEES OF INDIANA UNIVERSITY, priority 2020, dated 2026).

Tested on: MC38-OVA cells
Assay: CD8+ T cell cytotoxicity assay (OT-I CD8+ T cells co-cultured with MC38-OVA cells, luciferase)
Assay type: cell-based, mouse
Conditions: each drug 5.0 μM; in vitro luciferase assay
Description: MC38-OVA cells expressing luciferase were co-cultured with OT-I CD8+ T cells in the presence of each drug (5.0 μM) and the T cell-mediated cytotoxicity was measured by the luciferase assay. Difference (log 2): (log 2 [relative viability] >1; P<0.05). Relative viability=(tumor cell viability of treated group)/(tumor cell viability of control group). […] Statistical analysis was conducted using 1-way ANOVA.
T cells were then centrifuged and cultured in RPMI1640 medium containing of 2 ng/ml murine IL2, 10% FBS and 1% PS.To measure the cytotoxicity of CD8+ T cells, 50,000 enriched CD8+ T cells were mixed in 96-well plates with MC38-OVA cells at ratios of 5:1, 1:1 or 1:5. […] We assessed the killing efficiency by measuring the activity of luciferase (#E1910, Dual-Luciferase® Reporter Assay System, Promega) after 6 hours of co-culture of the T-cells together with the tumor cells.
The CD8+ T cells were freshly isolated from the spleen of OT-I mouse (C57BL/6-Tg (TcraTcrb) 1100Mjb/J).

Compound | ranking in screen of antigen-specific OT-I CD8+ T-cell killing of MC38-OVA tumor cells
COc1ccc(-c2coc3cc(O)cc(O)c3c2=O)cc1 [biochanin A] | top-ranked compounds that most potently affected the T-cell activity
icariin | top-ranked compounds that most potently affected the T-cell activity
